Experimental data taken from patent EP3117212B1, “METHOD OF STUDYING ABCG2 PROTEIN ACTIVITY AND USE OF 2-AMINOETHYL DIPHENYLBORINATE” (Uniwersytet Lodzki, priority 2014, dated 2015).
Changes are numbered by the printed parent chain.

How the values were obtained:
Assay type in all cases: cell-based
human ABCG2 protein = molecular target: T1, human ABCG2 protein (Homo sapiens, UniProt Q9UNQ0); experiment: Polyphenol accumulation in SB MDCKII-BCRP cells with/without Ko143, APB conjugate fluorescence (substrate verification); details: 20 µM compound; for transport substrate for the ABCG2 protein: 1 h, 37°C, with/without 10 µM Ko143, significantly higher fluorescence with Ko143; for transport capacity: relative difference between fluorescence values with/without 10 µM Ko143
T1 construct: host or cells: MDCKII (SB MDCKII-BCRP cell line)
T1 sequence (Q9UNQ0 1-655): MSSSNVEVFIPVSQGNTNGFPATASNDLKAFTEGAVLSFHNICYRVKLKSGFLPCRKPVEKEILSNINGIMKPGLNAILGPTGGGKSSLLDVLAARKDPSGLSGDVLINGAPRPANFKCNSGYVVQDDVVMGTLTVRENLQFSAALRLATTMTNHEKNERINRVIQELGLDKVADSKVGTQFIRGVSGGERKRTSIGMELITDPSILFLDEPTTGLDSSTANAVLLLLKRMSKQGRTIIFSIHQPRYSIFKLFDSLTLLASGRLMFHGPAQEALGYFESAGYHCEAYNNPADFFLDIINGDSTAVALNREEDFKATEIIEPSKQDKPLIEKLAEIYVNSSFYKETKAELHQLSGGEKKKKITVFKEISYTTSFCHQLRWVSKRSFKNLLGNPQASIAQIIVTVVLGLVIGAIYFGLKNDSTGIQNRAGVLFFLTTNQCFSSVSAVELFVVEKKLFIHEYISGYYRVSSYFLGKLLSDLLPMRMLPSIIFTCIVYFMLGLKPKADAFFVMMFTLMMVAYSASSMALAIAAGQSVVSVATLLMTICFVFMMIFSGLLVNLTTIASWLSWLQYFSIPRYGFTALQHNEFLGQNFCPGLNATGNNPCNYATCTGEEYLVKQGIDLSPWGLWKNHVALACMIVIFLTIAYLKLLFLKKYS
From the text: The results are shown on Fig. 1. […] The relative difference between the fluorescence values leads to the conclusion that transport capacity is the highest for compounds 9, 3 and 1 and the lowest for compounds 2 and 6.
On Figure 1 fluorescence of the conjugates of APB and polyphenolic compounds is shown for the cell lysates (mean ± the standard error of the mean, n=5; statistically significant differences at the significance level <0.05 are marked with * symbol).

ABCG2 K86M = molecular target: T2, ABCG2 K86M (Homo sapiens, UniProt Q9UNQ0, K86M); experiment: Luteolin transport in transfected HeLa cells with/without Ko143, APB conjugate fluorescence; details: K86M variant in HeLa cells; 10 µM luteolin, 0 or 10 µM Ko143, 1 h
T2 construct: expressed in transfected cells; host or cells: HeLa, transient transfection (FuGene HD), pcDNA6.2/V5 vector
T2 sequence (Q9UNQ0 1-655 K86M): T1 sequence (Q9UNQ0 1-655) with K86M
Description: (§1) A plasmid expression vector for the ABCG2 protein was prepared using standard molecular biology techniques. The vector was obtained by cloning of a sequence encoding human ABCG2 and (as an N-terminal fusion protein within the same open reading frame) a sequence encoding TagGFP2 fluorescent protein (obtained from the pTagGFP2-C plasmid produced by Evrogen, cat. no. FP191) into the pcDNA6.2/V5 plasmid. Subsequently, a series of expression vectors for sequential variants of the ABCG2 protein were prepared by performing site-directed mutagenesis in the codons coding particular amino acids in this sequence. For this purpose the Quickchange Lightning kit for site-directed mutagenesis manufactered by AgilentStratagene (cat. no. 210513) was used, in full compliance with the manufacturer's instructions. In this way, the vectors encoding the following sequential variants of the ABCG2 protein were obtained (letters denote the standard IUPAC codes for amino acid residues changed with regard to the wild-type sequence, the number denotes the position of the amino acid residue in the polypeptide chain from the N-terminus of the protein): R482G,R482K, K86M.
(§2) 72 hours before the experiment, the cells were chemically transfected with the above mentioned plasmids using the FuGene HD reagent (product from Promega, cat. no. E2311). The transfection mixture contained 150 µl of OptiMEM culture medium (product from Life Technologies, cat. no. 31985070), 3.3 µg of plasmid DNA and 9.9 µl of Fugene HD. The mixture was vortexed, incubated for 5 minutes and added to 2 ml of medium and the cells on the 6-well plate. 24 hours before the experiment, the cells were plated on a standard black 96-well polystyrene microplate with surface modified for cell culture (product from Thermo Scientific Nunc cat. no. 137101) with 50,000 cells per well in standard DMEM culture medium (product from LifeTechnologies cat. no. 32430) supplemented with 10% fetal bovine serum. […] The cells were then incubated for 1 h in a standard incubator for in vitro cell culture in temperature of 37°C. The incubation was followed by removing the medium and the cells were washed twice with portions of 50 µl of buffered saline (PBS, product from Life Technologies cat. no. 10010) in temperature of 4°C. Then the cells were lysed (solubilized) in 100 µl of PBS with the following additives: 0.5% (v/v) Triton X-100 surfactant (product from Sigma Aldrich, cat. no. T8787) and 0.25 mg/ml 2-aminoethyl-diphenylborinate (APB, CAS no. 208-366-5, product from Sigma Aldrich, cat. no. D9754). The compound APB was added to the PBS solution from a stock solution in DMSO with a concentration of 250 mg/ml permanently stored in temperature of -20°C. The cells were lysed by shaking the microplate in room temperature for 5 minutes.

ABCG2 R482K = molecular target: T3, ABCG2 R482K (Homo sapiens, UniProt Q9UNQ0, R482K); experiment: as above; details: R482K variant in HeLa cells; 10 µM luteolin, 0 or 10 µM Ko143, 1 h
T3 construct: expressed in transfected cells; host or cells: HeLa, transient transfection (FuGene HD), pcDNA6.2/V5 vector
T3 sequence (Q9UNQ0 1-655 R482K): T1 sequence (Q9UNQ0 1-655) with R482K
Description: as §1, §2

ABCG2 wild-type = molecular target: T4, ABCG2 wild-type (Homo sapiens, UniProt Q9UNQ0); experiment: as above; details: 10 µM luteolin, 0 or 10 µM Ko143, 1 h
T4 construct: expressed in transfected cells; host or cells: HeLa, transient transfection (FuGene HD), pcDNA6.2/V5 vector
T4 sequence (Q9UNQ0 1-655): T1 sequence (Q9UNQ0 1-655)
Description: as §1, §2

ABCG2 R482G = molecular target: T5, ABCG2 R482G (Homo sapiens, UniProt Q9UNQ0, R482G); experiment: as above; details: R482G variant in HeLa cells; 10 µM luteolin, 0 or 10 µM Ko143, 1 h
T5 construct: expressed in transfected cells; host or cells: HeLa, transient transfection (FuGene HD), pcDNA6.2/V5 vector
T5 sequence (Q9UNQ0 1-655 R482G): T1 sequence (Q9UNQ0 1-655) with R482G
Description: as §1, §2

transport substrate for the ABCG2 protein (human ABCG2 protein)	transport capacity (human ABCG2 protein)	transport activity towards luteolin (ABCG2 K86M)	transport activity towards luteolin (ABCG2 wild-type)	transport activity towards luteolin (ABCG2 R482G)	Structure (SMILES)	transport activity towards luteolin (ABCG2 R482K)
ABCG2 protein substrates	highest				O=c1c(O)c(-c2ccc(O)c(O)c2)oc2cc(O)cc(O)c12 [Compound 1, quercetin]	
ABCG2 protein substrates	lowest				O=c1c(O)c(-c2ccc(O)cc2)oc2cc(O)cc(O)c12 [Compound 2, kaempferol]	

Further lines, the compound ahead of its results:

Structure (SMILES)	transport substrate for the ABCG2 protein (human ABCG2 protein)	transport capacity (human ABCG2 protein)	transport activity towards luteolin (ABCG2 K86M)	transport activity towards luteolin (ABCG2 wild-type)	transport activity towards luteolin (ABCG2 R482G)	transport activity towards luteolin (ABCG2 R482K)
COc1ccc2oc(-c3ccc(OC)c(OC)c3)c(O)c(=O)c2c1 [Compound 6, 6,3',4'-trimethoxy-3-hydroxyflavone]	ABCG2 protein substrates	lowest				
O=c1c(O)c(-c2ccc(O)c(O)c2)oc2cc(O)ccc12 [Compound 4, fisetin]	ABCG2 protein substrates					
COc1ccc(OC)c(-c2oc3ccccc3c(=O)c2O)c1 [Compound 9, 2',5'-dimethoxy-3-hydroxyflavone]	ABCG2 protein substrates	highest				
O=c1cc(-c2ccc(O)c(O)c2)oc2cc(O)cc(O)c12 [Compound 3, luteolin]	ABCG2 protein substrates	highest	did not show any transport activity	similar, maximum transport activity	similar, maximum transport activity	slightly decreased in relation to the wild-type
